Data taken from article PMC5622025, “Synthesis and biological evaluation of tricyclic matrinic derivatives as a class of novel anti-HCV agents” (Chemistry Central Journal, 2017).
Where two headings read alike, the source gives them in different places.

Key:
HCV [1] = experiment: Anti-HCV effect in vitro, intracellular HCV RNA by real-time RT-PCR in infected Huh7.5 cells; format: cell-based, hepatitis C virus; details: for EC50: HCV-infected Huh7.5 cells, 72 h, real-time RT-PCR, read-out: EC50 (concentration required to inhibit HCV growth by 50%)
Description: (§1) All the target compounds were evaluated for their anti-HCV activities (EC50) and cytotoxicities (CC50) in human Huh7.5 cells using specific real-time RT-PCR assay, as described earlier. As an important indicator, the selectivity index (SI) was calculated as a ratio of CC50 to EC50. Anti-HCV ability of a given compound was estimated by combining its EC50 with SI values.
(§2) Human liver cell line Huh7.5 cells (kindly provided by Vertex Pharmaceuticals, Inc., Boston, MA) were cultured in Dulbecco’s modified eagle medium (DMEM) supplemented with 10% inactivated fetal bovine serum and 1% penicillin–streptomycin (invitrogen). Cells were digested with 0.05% trypsin-ethylene diamine tetraacetic acid (EDTA) and split twice a week.
Huh7.5 cells were seeded into 96-well or 6-well plates (Costar) at a density of 3 × 10^4 cells cm^−2. After 24 h incubation, the cells were infected with HCV viral stock (45 IU cell^−1) and simultaneously treated with the test compounds at various concentrations or solvent as control. The culture medium was removed after 72 h inoculation, the intracellular total RNA (in 96-well plates) was extracted with RNeasy Mini Kit (Qiagen), and total intracellular proteins (in 6-well plates) were extracted with Cyto-Buster Protein Extraction Reagent added with 1 mM protease inhibitor cocktail. The intracellular HCV RNA was quantified with a real time one-step reverse-transcription polymerase chain reaction (RT-PCR).

Huh7.5 cells = experiment: Cytotoxicity assay (MTT) in Huh7.5 cells; format: cell-based, human; details: Huh7.5 cells, 72 h, MTT; read-out: CC50 (cytotoxic concentration required to inhibit Huh7.5 cell growth by 50%)
Description: as §1, §2
(§3) Huh7.5 cells were seeded into 96-well plates (Costar) at a density of 3 × 10^4 cells cm^−2. After 24 h incubation, fresh culture medium containing test compounds at various concentrations were added. 72 h later, cytotoxicity was evaluated with 3-(4,5-dimethylthiazol-2-yl)-2,5-diphenyltetrazolium bromide (MTT).

[2] = PK study after single oral dosing; format: in vivo, SD rats; details: rats, single oral dosing of 25 mg kg^−1, n = 3
Kunming mice = experiment: Acute toxicity test, single oral dosing, 7 days monitoring; format: in vivo
Description: Each compound was given orally in a single-dosing experiment at 250, 500, 750 or 1000 mg kg^−1, respectively. The mice were closely monitored for 7 days.
Female Kunming mice with weight of 20.0 ± 1.0 g were fed with regular rodent chow and housed in an air conditioned room. The mice were randomly divided into different groups with six mice each. Each compound was given orally in a single-dosing experiment at 0, 250, 500, 750 or 1000 mg kg^−1 (ddH2O as control), respectively. The mice were closely monitored for 7 days. Body weight as well as survival was monitored.

[3] = Cytotoxicity assay (MTT) in Huh7.5 cells; format: cell-based, human; details: human; Huh7.5 cells, 72 h, MTT; read-out: CC50 (cytotoxic concentration required to inhibit Huh7.5 cell growth by 50%)
Description: as §1, §2, §3

HCV [4] = test system: HCV; design: method as in PMID 23516533, PMID 20593456; details: earlier studies; cited from earlier work

SMILES | EC50 (HCV [1]) [µM] | CC50 (Huh7.5 cells) [µM] | AUC 0–t [2] [µM·h] | AUC 0–∞ [2] [µM·h] | Cmax [2] [nM] | MRT [2] [h] | Tmax [2] [h] | t1/2 [2] [h] | LD50 (Kunming mice) [mg/kg] | EC50 (HCV [1]; Hepatitis C virus) [µM] | SI (ratio of CC50 to EC50) (HCV [1]; Huh7.5 cells) | CC50 at 72 h [3] [µM] | SI (anti-HCV) (HCV [4])
Cc1ccc(CN2C[C@@H]3CCCN4CCC[C@@H]([C@H]34)[C@H]2CCCCO)cc1.Cl.Cl [7b, 12N-(4-Methylbenzyl)matrinol dihydrochloride] | < 2.06 | 252 ± 3.04 | 2.32 | 2.36 | 790 | 4.47 | 1.00 | 3.39 | 392 |  |  |  | 
COc1ccc(CN2CC3CCCN4CCCC(C2CCCCO)C34)cc1.Cl.Cl (stereo not shown) [7a, 12N-(4-Methoxybenzyl)matrinol dihydrochloride] | 2.81 ± 0.82 | 383 ± 30.2 | 1.55 | 1.58 | 620 | 3.55 | 0.42 | 4.69 | 708 |  |  |  | 
COc1ccc(CN2C[C@@H]3CCCN4CCC[C@@H]([C@H]34)[C@H]2CCCC(=O)O)cc1 [compound 1, 12N-4-methoxylbenzyl matrinic acid] |  |  |  |  |  |  |  |  |  | 43.8 ± 3.81 | > 22.8 | > 1000 | over 22
